According to ChEMBL document CHEMBL3044825, “Synthesis and in vitro microbial activities of amides of pyridoquinolone” (2011):

Legend:
Type in all cases: functional
Details in all cases: read-out: IZ
[1] = system: Candida albicans; assay: Antifungal activity against Candida albicans at 100 ug/ml by cup-plate method
[2] = system: Staphylococcus aureus; assay: Antibacterial activity against Staphylococcus aureus at 100 ug/ml by cup-plate method
[3] = system: Escherichia coli; assay: Antibacterial activity against Escherichia coli at 100 ug/ml by cup-plate method
[4] = system: Pseudomonas aeruginosa; assay: Antibacterial activity against Pseudomonas aeruginosa at 100 ug/ml by cup-plate method
[5] = system: Bacillus subtilis; assay: Antibacterial activity against Bacillus subtilis at 100 ug/ml by cup plate method

Row | SMILES | zone of inhibition at 100 µg/mL [1] [mm] | zone of inhibition at 100 µg/mL [2] [mm] | zone of inhibition at 100 µg/mL [3] [mm] | zone of inhibition at 100 µg/mL [4] [mm] | zone of inhibition at 100 µg/mL [5] [mm]
1 | O=C(NC(=S)Nc1ccc([N+](=O)[O-])cc1)c1cn(CCO)c2c(cc(O)c3ncccc32)c1=O | 4 | 10 | 12 | 10 | 9
2 | Cc1cccc(NC(=S)NC(=O)c2cn(CCO)c3c(cc(O)c4ncccc43)c2=O)c1 | 3 | 9 | 9 | 9 | 8
3 | O=C(NC(=S)Nc1cccc(Cl)c1)c1cn(CCO)c2c(cc(O)c3ncccc32)c1=O | 3 | 9 | 10 | 9 | 10
4 | O=C(NC(=S)Nc1ccc(O)cc1)c1cn(CCO)c2c(cc(Cl)c3ncccc32)c1=O | 5 | 12 | 12 | 11 | 11
5 | O=C(NC(=S)Nc1ccccc1[N+](=O)[O-])c1cn(CCO)c2c(cc(Cl)c3ncccc32)c1=O | 4 |  | 10 |  | 9
6 | O=C(NC(=S)Nc1ccc([N+](=O)[O-])cc1)c1cn(CCO)c2c(cc(Cl)c3ncccc32)c1=O | 5 | 11 | 10 | 9 | 12
7 | Cc1ccccc1NC(=S)NC(=O)c1cn(CCO)c2c(cc(Cl)c3ncccc32)c1=O | 2 | 6 | 0 | 4 | 8
8 | Cc1cccc(NC(=S)NC(=O)c2cn(CCO)c3c(cc(Cl)c4ncccc43)c2=O)c1 | 4 | 10 | 11 | 10 | 9
9 | O=C(NC(=S)Nc1cccc(Cl)c1)c1cn(CCO)c2c(cc(Cl)c3ncccc32)c1=O | 3 | 8 | 9 | 9 | 10
10 | O=C(NC(=S)Nc1ccccc1)c1cn(CCO)c2c(cc(O)c3ncccc32)c1=O | 4 |  |  | 10 | 
11 | O=C(NC(=S)Nc1cccc(O)c1)c1cn(CCO)c2c(cc(O)c3ncccc32)c1=O | 3 | 8 | 9 | 7 | 10
12 | COc1ccc(NC(=S)NC(=O)c2cn(CCO)c3c(cc(O)c4ncccc43)c2=O)cc1 | 2 | 8 | 8 | 8 | 6
13 | Cc1ccc(C)c(NS(=O)(=O)c2ccc(NC(=O)c3cn(CCO)c4c(cc(Cl)c5ncccc54)c3=O)cc2)c1 | 4 | 10 | 10 | 10 | 9
14 | O=C(Nc1ccc(S(=O)(=O)Nc2ccccc2)cc1)c1cn(CCO)c2c(cc(O)c3ncccc32)c1=O | 3 | 9 | 9 | 10 | 8
15 | O=C(Nc1ccc(S(=O)(=O)Nc2cccc(Cl)c2)cc1)c1cn(CCO)c2c(cc(O)c3ncccc32)c1=O | 3 | 8 | 9 | 8 | 9
16 | COc1ccc(NS(=O)(=O)c2ccc(NC(=O)c3cn(CCO)c4c(cc(O)c5ncccc54)c3=O)cc2)cc1 | 4 | 10 | 8 | 8 | 11
17 | O=C(Nc1ccc(S(=O)(=O)Nc2ccc([N+](=O)[O-])cc2)cc1)c1cn(CCO)c2c(cc(O)c3ncccc32)c1=O | 4 | 10 | 12 | 10 | 11
18 | Cc1cccc(NS(=O)(=O)c2ccc(NC(=O)c3cn(CCO)c4c(cc(O)c5ncccc54)c3=O)cc2)c1 | 5 | 11 | 10 | 11 | 12
19 | Cc1ccc(C)c(NS(=O)(=O)c2ccc(NC(=O)c3cn(CCO)c4c(cc(O)c5ncccc54)c3=O)cc2)c1 | 4 | 11 | 10 | 11 | 9
20 | O=C(NC(=S)Nc1ccccc1)c1cn(CCO)c2c(cc(Cl)c3ncccc32)c1=O | 3 | 9 | 10 | 9 | 11

Row | SMILES | zone of inhibition at 100 µg/mL [1] [mm] | zone of inhibition at 100 µg/mL [2] [mm] | zone of inhibition at 100 µg/mL [3] [mm] | zone of inhibition at 100 µg/mL [4] [mm] | zone of inhibition at 100 µg/mL [5] [mm]
21 | O=C(Nc1ccccc1[N+](=O)[O-])c1cn(CCO)c2c(cc(O)c3ncccc32)c1=O | 4 | 10 | 9 | 9 | 11
22 | Cc1ccccc1NC(=O)c1cn(CCO)c2c(cc(O)c3ncccc32)c1=O | 0 |  | 9 |  | 
23 | Cc1ccc(NC(=O)c2cn(CCO)c3c(cc(O)c4ncccc43)c2=O)cc1 | 3 | 9 | 10 | 9 | 8
24 | O=C(Nc1ccc(S(=O)(=O)Nc2cccc(Cl)c2)cc1)c1cn(CCO)c2c(cc(Cl)c3ncccc32)c1=O | 4 | 11 | 10 | 10 | 9
25 | COc1ccccc1NS(=O)(=O)c1ccc(NC(=O)c2cn(CCO)c3c(cc(Cl)c4ncccc43)c2=O)cc1 |  |  | 5 | 5 | 
26 | COc1ccc(NS(=O)(=O)c2ccc(NC(=O)c3cn(CCO)c4c(cc(Cl)c5ncccc54)c3=O)cc2)cc1 | 3 | 9 | 9 | 10 | 10
27 | O=C(Nc1ccc(S(=O)(=O)Nc2ccc([N+](=O)[O-])cc2)cc1)c1cn(CCO)c2c(cc(Cl)c3ncccc32)c1=O | 3 | 9 | 11 | 9 | 10
28 | Cc1ccccc1NS(=O)(=O)c1ccc(NC(=O)c2cn(CCO)c3c(cc(Cl)c4ncccc43)c2=O)cc1 | 3 | 9 | 9 | 9 | 10
29 | O=C(Nc1ccccc1)c1cn(CCO)c2c(cc(Cl)c3ncccc32)c1=O | 5 | 12 | 12 |  | 
30 | O=C(Nc1cccc(Cl)c1)c1cn(CCO)c2c(cc(Cl)c3ncccc32)c1=O | 3 | 8 | 7 | 7 | 9
31 | O=C(Nc1ccc(Cl)cc1)c1cn(CCO)c2c(cc(Cl)c3ncccc32)c1=O |  |  | 6 | 6 | 7
32 | COc1ccccc1NC(=O)c1cn(CCO)c2c(cc(Cl)c3ncccc32)c1=O | 3 | 9 | 8 | 8 | 10
33 | O=C(Nc1ccccc1[N+](=O)[O-])c1cn(CCO)c2c(cc(Cl)c3ncccc32)c1=O | 4 |  |  |  | 10
34 | O=C(Nc1cccc([N+](=O)[O-])c1)c1cn(CCO)c2c(cc(Cl)c3ncccc32)c1=O | 3 | 9 | 9 | 9 | 6
35 | O=C(Nc1ccc([N+](=O)[O-])cc1)c1cn(CCO)c2c(cc(Cl)c3ncccc32)c1=O | 4 |  | 9 |  | 
36 | Cc1cccc(NC(=O)c2cn(CCO)c3c(cc(Cl)c4ncccc43)c2=O)c1 | 4 | 10 | 10 | 10 | 9
37 | O=C(Nc1ccc(Cl)cc1)c1cn(CCO)c2c(cc(O)c3ncccc32)c1=O | 5 |  | 10 |  | 10
38 | COc1ccc(NC(=O)c2cn(CCO)c3c(cc(O)c4ncccc43)c2=O)cc1 | 5 | 10 | 11 | 10 | 12
39 | C[C@@H]1[C@H](O)[C@@H](C)/C=C/C=C/C=C/C=C/C=C/C=C/C=C/[C@H](O[C@@H]2O[C@H](C)[C@@H](O)[C@H](N)[C@@H]2O)C[C@@H]2O[C@](O)(C[C@@H](O)C[C@@H](O)[C@H](O)CC[C@@H](O)C[C@@H](O)CC(=O)O[C@H]1C)C[C@H](O)[C@H]2C(=O)O [AMPHOTERICIN B] | 9 |  |  |  | 
40 | O=C(O)c1cn(C2CC2)c2cc(N3CCNCC3)c(F)cc2c1=O [CIPROFLOXACIN] |  | 17 |  | 17 | 16
